# Measured values as given in ChEMBL document CHEMBL1201862, “PubChem BioAssay data set” (2004).
# Activity calls are given as the source filed them.
# Columns and labels:
# [1] = Counterscreen for inhibitors of Trypanosoma brucei methionyl tRNA synthetase (MetRS): Luminescence-based cell-based high throughput dose response assay to identify compounds that are cytotoxic to Jurkat human T lymphocyte cells.; format: functional
# [2] = target: T1, Methionyl-tRNA synthetase, putative (Trypanosoma brucei brucei, UniProt Q38C91); format: functional, Trypanosoma brucei brucei strain 927/4 GUTat10.1
# T1 sequence (Q38C91 whole entry): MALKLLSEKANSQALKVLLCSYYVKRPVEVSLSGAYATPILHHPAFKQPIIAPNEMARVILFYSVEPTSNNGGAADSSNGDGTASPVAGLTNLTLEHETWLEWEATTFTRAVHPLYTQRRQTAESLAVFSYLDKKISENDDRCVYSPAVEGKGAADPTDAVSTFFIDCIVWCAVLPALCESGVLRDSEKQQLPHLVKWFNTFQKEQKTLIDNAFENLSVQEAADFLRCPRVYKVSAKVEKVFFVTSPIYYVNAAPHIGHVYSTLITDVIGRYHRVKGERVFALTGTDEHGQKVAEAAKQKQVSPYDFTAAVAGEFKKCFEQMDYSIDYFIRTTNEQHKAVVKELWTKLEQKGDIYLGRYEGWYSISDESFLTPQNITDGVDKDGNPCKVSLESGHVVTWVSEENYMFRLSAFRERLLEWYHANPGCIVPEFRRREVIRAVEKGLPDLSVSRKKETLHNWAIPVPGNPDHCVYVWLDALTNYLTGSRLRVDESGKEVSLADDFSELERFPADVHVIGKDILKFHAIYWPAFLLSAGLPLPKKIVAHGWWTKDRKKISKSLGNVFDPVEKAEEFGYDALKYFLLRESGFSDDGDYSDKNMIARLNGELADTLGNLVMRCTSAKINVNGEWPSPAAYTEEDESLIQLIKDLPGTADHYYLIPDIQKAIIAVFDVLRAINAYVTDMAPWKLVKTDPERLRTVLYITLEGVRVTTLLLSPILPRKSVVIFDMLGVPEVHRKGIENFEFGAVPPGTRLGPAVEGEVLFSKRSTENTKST
# [3] = target: T1, Methionyl-tRNA synthetase, putative; format: functional, Trypanosoma brucei brucei strain 927/4 GUTat10.1; remark: listed apart in the source
# HeLa = assay: ATP-based viability loss in HeLa cells – cell-based, CellTiter-Glo luminescence, cherry-pick samples, cytotoxicity control for MITF activator project, dose response (AID 540259); format: functional; conditions: Homo sapiens
# Protein skinhead-1 = target: T2, Protein skinhead-1 (Caenorhabditis elegans, UniProt P34707); format: functional
# T2 sequence (P34707 whole entry): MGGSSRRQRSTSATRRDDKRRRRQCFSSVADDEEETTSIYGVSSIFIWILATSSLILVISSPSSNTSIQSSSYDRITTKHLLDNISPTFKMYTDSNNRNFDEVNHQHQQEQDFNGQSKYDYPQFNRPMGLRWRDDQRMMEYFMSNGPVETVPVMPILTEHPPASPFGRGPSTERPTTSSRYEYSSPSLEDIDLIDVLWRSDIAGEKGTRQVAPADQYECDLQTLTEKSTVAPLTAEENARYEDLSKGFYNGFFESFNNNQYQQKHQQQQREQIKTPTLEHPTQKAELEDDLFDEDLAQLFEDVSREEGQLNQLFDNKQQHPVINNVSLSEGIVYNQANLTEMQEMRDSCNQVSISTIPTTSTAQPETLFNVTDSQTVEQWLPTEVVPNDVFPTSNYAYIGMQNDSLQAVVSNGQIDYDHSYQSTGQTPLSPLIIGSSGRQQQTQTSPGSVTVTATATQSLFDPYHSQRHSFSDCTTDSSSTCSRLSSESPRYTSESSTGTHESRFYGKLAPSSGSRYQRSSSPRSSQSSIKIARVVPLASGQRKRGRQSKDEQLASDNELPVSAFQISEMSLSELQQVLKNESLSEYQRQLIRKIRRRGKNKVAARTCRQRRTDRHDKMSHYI
# [4] = target: T3, Oxysterols receptor LXR-beta (Homo sapiens, UniProt P55055); format: functional, cell-based;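 note: agonist activity at LXR measured by a cell-based luminescence readout across a dose range, run as a counterscreen for daf-12 agonists; HEK293 cells with Gal4-LXR fusion and GAL4-driven luciferase reporter; potency for activation of Gal4-LXR reporter so compounds are agonists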
# T3 sequence (P55055 whole entry): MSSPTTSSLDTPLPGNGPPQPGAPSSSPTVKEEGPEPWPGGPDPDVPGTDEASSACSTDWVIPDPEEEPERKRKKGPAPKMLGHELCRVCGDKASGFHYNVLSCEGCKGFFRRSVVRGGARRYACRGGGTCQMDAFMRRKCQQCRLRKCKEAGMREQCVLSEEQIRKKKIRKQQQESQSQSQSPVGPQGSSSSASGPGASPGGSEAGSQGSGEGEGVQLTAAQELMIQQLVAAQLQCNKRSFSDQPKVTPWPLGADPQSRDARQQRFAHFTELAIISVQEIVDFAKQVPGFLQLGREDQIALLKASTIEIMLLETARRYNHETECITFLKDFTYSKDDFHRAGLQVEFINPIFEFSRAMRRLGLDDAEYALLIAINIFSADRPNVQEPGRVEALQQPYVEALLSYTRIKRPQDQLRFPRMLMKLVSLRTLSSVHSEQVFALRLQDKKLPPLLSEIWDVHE
# [5] = target: T4, Sentrin-specific protease 8 (Homo sapiens, UniProt Q96LD8); format: functional
# T4 sequence (Q96LD8 whole entry): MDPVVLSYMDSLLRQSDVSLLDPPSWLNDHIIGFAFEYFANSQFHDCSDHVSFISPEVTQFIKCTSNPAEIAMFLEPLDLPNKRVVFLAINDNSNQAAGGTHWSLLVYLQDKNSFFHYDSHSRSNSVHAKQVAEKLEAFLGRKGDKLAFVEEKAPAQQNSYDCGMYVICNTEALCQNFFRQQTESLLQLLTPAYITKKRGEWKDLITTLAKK
# [6] = target: T4, Sentrin-specific protease 8; format: functional; remark: listed apart in the source
# [7] = target: Potassium channel subfamily K member 9 (Homo sapiens, UniProt Q9NPC2); assay: KCNK9 flux blockade, concentration-response – cell-based, FluxOR thallium flux, selectivity assay for TASK1 inhibitor project, SAR follow-up (AID 652211); format: functional;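 note: potency is for inhibitors of the channel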
# Potassium channel subfamily K member 9, sequence (Q9NPC2 whole entry): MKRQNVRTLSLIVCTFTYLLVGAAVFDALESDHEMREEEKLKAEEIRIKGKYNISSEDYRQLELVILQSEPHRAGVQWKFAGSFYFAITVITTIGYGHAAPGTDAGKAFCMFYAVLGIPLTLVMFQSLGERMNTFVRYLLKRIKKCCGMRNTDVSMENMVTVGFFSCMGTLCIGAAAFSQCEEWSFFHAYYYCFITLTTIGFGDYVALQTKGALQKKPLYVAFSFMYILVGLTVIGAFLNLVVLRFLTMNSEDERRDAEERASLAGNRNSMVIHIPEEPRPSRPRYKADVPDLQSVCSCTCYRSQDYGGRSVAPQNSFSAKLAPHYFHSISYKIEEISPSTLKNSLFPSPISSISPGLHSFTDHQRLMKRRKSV
# [8] = target: Potassium channel subfamily K member 3 (Homo sapiens, UniProt O14649); assay: inhibition of human KCNK3 channel flux – CHO cells, FluxOR thallium flux, SAR follow-up (AID 652212); format: functional
# Potassium channel subfamily K member 3, sequence (O14649 whole entry): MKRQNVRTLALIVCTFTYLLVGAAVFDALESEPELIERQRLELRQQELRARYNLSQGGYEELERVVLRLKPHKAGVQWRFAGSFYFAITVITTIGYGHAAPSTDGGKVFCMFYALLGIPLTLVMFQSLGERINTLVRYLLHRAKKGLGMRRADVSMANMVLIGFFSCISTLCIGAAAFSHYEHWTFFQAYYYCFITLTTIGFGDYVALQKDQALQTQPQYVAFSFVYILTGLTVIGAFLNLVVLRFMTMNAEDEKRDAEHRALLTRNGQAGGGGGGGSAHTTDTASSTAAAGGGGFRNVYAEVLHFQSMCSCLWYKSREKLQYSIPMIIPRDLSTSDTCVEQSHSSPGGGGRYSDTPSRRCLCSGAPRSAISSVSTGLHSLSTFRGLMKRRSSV
# [9] = target: Fructose-bisphosphate aldolase (Mycobacterium tuberculosis, UniProt P9WQA3); assay: Fluorescence-based biochemical high throughput dose response assay for inhibitors of the fructose-bisphosphate aldolase (FBA) of M. tuberculosis.; format: functional
# Nonstructural protein 1 = Nonstructural protein 1 (Influenza A virus, UniProt Q194T2); format: functional, Influenza A virus (A/California/07/2009(H1N1))
# Nonstructural protein 1, sequence (Q194T2 whole entry): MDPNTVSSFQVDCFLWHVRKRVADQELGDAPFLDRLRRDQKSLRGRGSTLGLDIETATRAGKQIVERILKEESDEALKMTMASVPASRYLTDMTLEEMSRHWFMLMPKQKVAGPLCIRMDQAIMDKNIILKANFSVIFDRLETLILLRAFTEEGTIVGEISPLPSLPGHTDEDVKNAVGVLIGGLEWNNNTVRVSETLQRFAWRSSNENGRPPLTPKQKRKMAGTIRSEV
# Protein S100-A4 = Protein S100-A4 (Homo sapiens, UniProt P26447); assay: human S100A4 peptide interaction inhibition curves – biochemical, fluorescence polarization, cherry-picked hits, dose response (AID 687001); format: functional
# Protein S100-A4, sequence (P26447 whole entry): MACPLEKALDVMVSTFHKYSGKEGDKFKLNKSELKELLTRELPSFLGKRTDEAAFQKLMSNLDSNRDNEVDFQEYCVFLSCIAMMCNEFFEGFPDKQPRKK
# [10] = A Cell-Based Confirmatory Screen for Compounds that Inhibit VEEV, TC-83 (8).; format: functional
# H9c2 = assay: cells; format: functional, cell-based; conditions: Rattus norvegicus, H9c2, Myocardium;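 note: confirmatory concentration-response retest of ultra-high-throughput screening hits for modulation of myocardial damage; cell death induced by hydrogen peroxide oxidative stress; compound pretreatment for 60 min then peroxide exposure for 2 h; potency is for protecting the cells against peroxide damage rather than for killing them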
# [11] = target: T5, Probable nicotinate-nucleotide adenylyltransferase (Staphylococcus aureus (strain N315), UniProt P65502); format: functional, Staphylococcus aureus subsp. aureus N315; conditions: read-out: IC50_Mean;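 for IC50 Mean: confirmatory dose-response retesting of NadD inhibitor hits first found in an ultra-high-throughput screen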
# T5 sequence (P65502 whole entry): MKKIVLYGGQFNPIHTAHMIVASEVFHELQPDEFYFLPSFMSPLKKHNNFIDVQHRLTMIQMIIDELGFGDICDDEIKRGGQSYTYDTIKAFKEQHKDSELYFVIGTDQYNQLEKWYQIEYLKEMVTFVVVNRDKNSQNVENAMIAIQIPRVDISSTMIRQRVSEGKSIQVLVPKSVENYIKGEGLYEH
# Albumin = Albumin (Bos taurus, UniProt P02769); assay: Counterscreen for inhibitors of T-cell receptor (TCR)-CD3 interaction: Fluorescence-based biochemical high throughput dose response assay to identify inhibitors of T-cell receptor (TCR)-CD3 interaction using a TAMRA-labeled BSA probe.; format: functional
# [12] = target: T5, Probable nicotinate-nucleotide adenylyltransferase; format: functional, Staphylococcus aureus subsp. aureus N315
# [13] = viability of BHK-21 cells – cell-based, secondary screen, cytotoxicity control for flavivirus guanylyltransferase probe project (AID 624078); format: functional
# NS3 = NS3 (Hepatitis C virus, UniProt A3EZJ3); assay: NS3h DNA-binding inhibition IC50 – biochemical, fluorescence polarization, ChemBridge library, dose response (AID 743264)
# NS3, sequence (A3EZJ3 whole entry): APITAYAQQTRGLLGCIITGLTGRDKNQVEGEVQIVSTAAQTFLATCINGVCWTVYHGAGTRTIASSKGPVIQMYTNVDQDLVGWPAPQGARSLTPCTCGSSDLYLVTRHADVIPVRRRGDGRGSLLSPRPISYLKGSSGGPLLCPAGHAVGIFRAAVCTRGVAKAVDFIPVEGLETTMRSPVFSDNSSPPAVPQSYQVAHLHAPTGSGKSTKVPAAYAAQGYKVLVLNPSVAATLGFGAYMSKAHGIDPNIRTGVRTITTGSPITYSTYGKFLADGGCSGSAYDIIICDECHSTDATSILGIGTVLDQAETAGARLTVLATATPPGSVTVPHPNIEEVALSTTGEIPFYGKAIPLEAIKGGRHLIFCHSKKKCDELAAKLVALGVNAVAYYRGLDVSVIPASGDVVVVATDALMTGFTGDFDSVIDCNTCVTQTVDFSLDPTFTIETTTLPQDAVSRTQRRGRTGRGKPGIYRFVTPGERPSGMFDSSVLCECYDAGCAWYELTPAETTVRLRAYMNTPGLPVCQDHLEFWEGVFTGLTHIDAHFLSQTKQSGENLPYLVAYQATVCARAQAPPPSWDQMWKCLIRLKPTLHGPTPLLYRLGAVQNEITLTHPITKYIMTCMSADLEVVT
# fMet-Leu-Phe receptor = fMet-Leu-Phe receptor (Homo sapiens, UniProt P21462); assay: formyl peptide receptor binders – dose response (AID 519); format: functional
# fMet-Leu-Phe receptor, sequence (P21462 whole entry): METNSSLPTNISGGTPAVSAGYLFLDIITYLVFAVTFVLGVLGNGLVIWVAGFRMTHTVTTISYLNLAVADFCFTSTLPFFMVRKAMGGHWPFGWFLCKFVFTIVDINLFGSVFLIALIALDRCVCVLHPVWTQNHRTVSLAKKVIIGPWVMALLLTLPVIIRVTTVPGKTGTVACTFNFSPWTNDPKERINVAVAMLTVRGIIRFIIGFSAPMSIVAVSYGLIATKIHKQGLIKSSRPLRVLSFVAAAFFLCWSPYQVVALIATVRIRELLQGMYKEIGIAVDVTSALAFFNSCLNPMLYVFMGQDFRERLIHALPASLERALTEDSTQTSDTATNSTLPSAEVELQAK
# Aminopeptidase N = target: T6, Aminopeptidase N (Plasmodium falciparum FcB1/Columbia, UniProt O96935); assay: malaria alanyl aminopeptidase activity blockers – biochemical, fluorogenic H-Leu-NHMec substrate, 1536-well (AID 1445); design: species or system Plasmodium falciparum 3D7, 3D7
# T6 sequence (O96935 whole entry): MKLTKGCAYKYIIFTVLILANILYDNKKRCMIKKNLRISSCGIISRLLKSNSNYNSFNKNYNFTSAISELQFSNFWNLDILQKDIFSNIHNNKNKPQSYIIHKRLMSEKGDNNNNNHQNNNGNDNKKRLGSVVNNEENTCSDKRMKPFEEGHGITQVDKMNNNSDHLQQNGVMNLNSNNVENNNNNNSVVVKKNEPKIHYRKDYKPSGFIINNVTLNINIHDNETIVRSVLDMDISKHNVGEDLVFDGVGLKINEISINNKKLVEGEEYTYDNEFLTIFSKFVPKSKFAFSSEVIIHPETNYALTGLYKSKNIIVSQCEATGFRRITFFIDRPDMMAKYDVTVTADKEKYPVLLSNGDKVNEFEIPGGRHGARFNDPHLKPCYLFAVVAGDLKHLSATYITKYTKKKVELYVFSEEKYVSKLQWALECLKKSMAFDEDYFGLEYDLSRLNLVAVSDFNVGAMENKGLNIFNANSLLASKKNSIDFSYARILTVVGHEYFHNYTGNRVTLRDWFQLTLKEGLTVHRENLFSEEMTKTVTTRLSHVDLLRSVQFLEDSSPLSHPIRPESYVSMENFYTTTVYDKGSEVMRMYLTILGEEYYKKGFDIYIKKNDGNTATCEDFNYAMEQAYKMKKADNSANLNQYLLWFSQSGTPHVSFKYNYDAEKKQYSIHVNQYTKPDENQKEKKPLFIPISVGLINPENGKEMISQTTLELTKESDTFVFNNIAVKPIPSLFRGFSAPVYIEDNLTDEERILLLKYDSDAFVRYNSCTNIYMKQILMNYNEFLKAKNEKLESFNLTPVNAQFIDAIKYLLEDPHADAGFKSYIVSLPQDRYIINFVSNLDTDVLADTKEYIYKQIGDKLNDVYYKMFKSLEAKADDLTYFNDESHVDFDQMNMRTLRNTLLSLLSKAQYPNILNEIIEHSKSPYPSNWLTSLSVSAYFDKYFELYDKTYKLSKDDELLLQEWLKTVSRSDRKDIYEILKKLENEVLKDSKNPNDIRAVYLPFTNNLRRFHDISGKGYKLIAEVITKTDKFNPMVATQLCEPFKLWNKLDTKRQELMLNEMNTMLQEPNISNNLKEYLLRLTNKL
# [14] = target: Endoplasmic reticulum aminopeptidase 1 (Homo sapiens, UniProt Q9NZ08); assay: inhibition of human ERAP1 enzyme activity – biochemical, cherry-pick, set 2, plate reader, dose response (AID 743314)
# [15] = target: T7, Scavenger receptor class B member 1 (Mus musculus, UniProt Q61009); assay: mouse SR-BI DiI-HDL transfer blockers – ldlA[mSR-BI] CHO cells, fluorescence plate reader, dry powder, set 9, dose response (AID 623880); format: functional, cell-based
# T7 sequence (Q61009 whole entry): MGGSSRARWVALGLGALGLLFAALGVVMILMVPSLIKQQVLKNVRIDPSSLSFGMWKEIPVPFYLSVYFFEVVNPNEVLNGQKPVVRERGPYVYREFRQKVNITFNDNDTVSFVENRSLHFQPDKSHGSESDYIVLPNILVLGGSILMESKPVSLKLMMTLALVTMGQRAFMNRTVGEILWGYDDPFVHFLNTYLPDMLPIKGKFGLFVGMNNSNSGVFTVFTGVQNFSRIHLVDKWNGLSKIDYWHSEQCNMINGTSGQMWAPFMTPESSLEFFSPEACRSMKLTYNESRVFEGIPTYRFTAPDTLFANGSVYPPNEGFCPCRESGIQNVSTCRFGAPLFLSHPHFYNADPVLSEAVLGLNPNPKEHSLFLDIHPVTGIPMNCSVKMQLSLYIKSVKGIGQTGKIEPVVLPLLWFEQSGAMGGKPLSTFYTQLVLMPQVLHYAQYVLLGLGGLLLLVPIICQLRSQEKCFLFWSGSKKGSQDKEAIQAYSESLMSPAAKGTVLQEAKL
# [16] = target: T7, Scavenger receptor class B member 1; assay: blockers of DiI-HDL lipid transfer via SR-BI – cell-based, ldlA[mSR-BI] CHO, DiI fluorescence, dry powder, set 10, dose response (AID 624029); format: functional
# [17] = target: Arf-GAP with SH3 domain, ANK repeat and PH domain-containing protein 1 (Homo sapiens, UniProt Q9ULH1); format: functional;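 note: biochemical fluorescence polarization dose–response screen measuring inhibition of ASAP1; ASAP1 GAP domain stimulating GTP hydrolysis by truncated human ARF1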
# Arf-GAP with SH3 domain, ANK repeat and PH domain-containing protein 1, sequence (Q9ULH1 whole entry, the tested form may be a part): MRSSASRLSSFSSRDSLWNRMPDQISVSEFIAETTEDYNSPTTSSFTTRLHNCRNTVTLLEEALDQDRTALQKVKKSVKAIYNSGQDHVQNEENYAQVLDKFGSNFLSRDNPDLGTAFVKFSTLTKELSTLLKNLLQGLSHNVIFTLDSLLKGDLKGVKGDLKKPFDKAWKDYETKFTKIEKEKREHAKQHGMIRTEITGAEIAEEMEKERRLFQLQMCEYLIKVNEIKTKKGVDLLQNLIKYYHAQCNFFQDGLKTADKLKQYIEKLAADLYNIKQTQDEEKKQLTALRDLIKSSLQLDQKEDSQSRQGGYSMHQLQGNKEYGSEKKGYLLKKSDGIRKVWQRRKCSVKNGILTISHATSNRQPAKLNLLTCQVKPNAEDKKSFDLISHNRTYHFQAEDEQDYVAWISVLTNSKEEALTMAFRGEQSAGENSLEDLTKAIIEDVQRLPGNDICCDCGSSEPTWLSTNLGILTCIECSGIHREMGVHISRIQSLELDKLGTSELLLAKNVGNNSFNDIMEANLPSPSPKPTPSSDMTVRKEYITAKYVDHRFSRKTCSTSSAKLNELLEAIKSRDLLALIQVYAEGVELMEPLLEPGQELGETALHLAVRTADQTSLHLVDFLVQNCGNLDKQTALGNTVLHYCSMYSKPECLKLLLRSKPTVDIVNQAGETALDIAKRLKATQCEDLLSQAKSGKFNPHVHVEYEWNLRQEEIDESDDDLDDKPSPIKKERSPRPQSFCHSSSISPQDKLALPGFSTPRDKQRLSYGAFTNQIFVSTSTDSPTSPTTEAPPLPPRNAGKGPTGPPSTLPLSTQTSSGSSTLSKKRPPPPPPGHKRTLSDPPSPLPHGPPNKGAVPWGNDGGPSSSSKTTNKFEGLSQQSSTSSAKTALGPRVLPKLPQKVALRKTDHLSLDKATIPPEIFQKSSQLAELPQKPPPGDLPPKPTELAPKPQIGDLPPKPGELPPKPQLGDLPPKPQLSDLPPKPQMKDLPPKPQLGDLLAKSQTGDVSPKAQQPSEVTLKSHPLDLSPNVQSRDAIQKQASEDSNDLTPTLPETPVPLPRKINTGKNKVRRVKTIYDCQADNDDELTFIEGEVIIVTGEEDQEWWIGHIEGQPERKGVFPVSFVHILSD
# [18] = viability of uninfected HEp-2 cells – cell-based, HTS, cytotoxicity control for RSV inhibitor project, dose response (AID 2410); format: functional; conditions: human respiratory syncytial virus
# [19] = inhibition of bursicon-driven LGR2 cAMP signaling – cell-based, HEK293, CRE-luciferase reporter, cherry pick, dose response (AID 743342); format: functional
# [20] = A549 cell cytotoxicity, dose response, cytotoxicity control, plate reader, cherry-pick, antagonist series (AID 743412); format: functional, cell-based
# [21] = MITF Orthogonal Assay: SK-MEL-5 CTG Assay Measured in Cell-Based System Using Plate Reader - 2084-02_Inhibitor_Dose_DryPowder_Activity_Set7.; format: functional
# [22] = MITF: Counter assay: A375 proliferation Measured in Cell-Based System Using Plate Reader - 2084-03_Inhibitor_Dose_DryPowder_Activity_Set8.; format: functional; conditions: A-375
smiles,measurement,setting,value
COc1ccc(OCc2cc(C(=O)NCc3nc(C)cs3)no2)c(Cl)c1,IC50,[1],83.3 µM (inactive)
same,IC50,[2],46.9 µM (inactive)
same,IC50,[3],23.5 µM (inactive)
C/C(=N/OCc1ccc(Br)cc1)c1ccccn1,AC50,HeLa,90.3 µM (active)
same,IC50,Protein skinhead-1,34.5 µM (active)
same,EC50,[4],> 67.6 µM (inactive)
CCCCO/C(O)=C1\C(C)=NC2(O)c3ccccc3C(=O)C12O (configuration not stated),IC50,[5],4.54 µM (active)
same,IC50,[6],10 µM (active)
COc1ccc(F)cc1C(=O)Nc1cccc(NC(=O)c2cccc(C)c2)c1,IC50,[7],0.87 µM (active)
same,IC50,[8],0.225 µM (active)
Cc1nc2oc3c(=O)nc[nH]c3c2c2c1COC(C)(C)C2,IC50,[9],2.33 µM (active)
CC1N(C)c2cc(NC(=O)c3ccco3)ccc2C1(C)C (configuration not stated),IC50,Nonstructural protein 1,69.6 µM (active)
same,AC50,Protein S100-A4,1.91 µM (active)
CCN1CCN(C)C/C1=N\c1ccc([N+](=O)[O-])cc1C(=O)Nc1ccccc1,IC50,[10],< 0.22 µM (active)
CCOC(=O)Cn1/c(=N/C(=O)c2cc(-c3cccs3)nc3ccccc23)sc2cc(S(N)(=O)=O)ccc21,IC50,H9c2,> 79 µM (inactive)
same,IC50,[11],31.4 µM (active)
same,IC50,Albumin,> 94.1 µM (inactive)
same,IC50,[12],14.2 µM (active)
O=C(O)CSc1cc(NS(=O)(=O)c2cccc3cccnc23)c2ccccc2c1O,CC50,[13],6.1 µM (active)
Cc1ccc(C)n1NC1=NC(=O)CS1,IC50,NS3,27.2 µM (inactive)
CSc1ccccc1NS(=O)(=O)c1ccccc1,Ki,fMet-Leu-Phe receptor,> 66.7 µM (inactive)
CN1CCN(Cc2c(O)ccc3cc(-c4ccccn4)c(=O)oc23)CC1,IC50,Aminopeptidase N,52.2 µM (active)
same,AC50,[14],1.88 µM (active)
C[C@@H]1CN([C@H](C)CO)C(=O)c2cc(NC(=O)C3CCCCC3)ccc2O[C@H]1CN(C)S(=O)(=O)c1cccc(Cl)c1,AC50,[15],0.796 µM (active)
same,AC50,[16],1.22 µM (active)
Fc1ccc(Nc2nc(-c3ccncc3)nc3ccccc23)cc1F,IC50,[17],46.5 µM (inactive)
same,CC50,[18],45.1 µM (active)
CC(=O)OC[C@@H]1CN(Cc2ccccc2)C[C@H](n2cnc3c(N(C)C(C)C)ncnc32)O1,AC50,cells,28.8 µM (active)
C[C@H]1CCCCO[C@@H](CN(C)C(=O)Nc2ccccc2)[C@@H](C)CN([C@@H](C)CO)C(=O)c2cc(NC(=O)NC3CCCCC3)ccc2O1,AC50,[19],5.33 µM (active)
same,AC50,[20],43.3 µM (active)
O=C1C=C(Nc2ccc(F)cc2)C(=O)c2ccccc21,AC50,[21],0.595 µM (active)
same,AC50,[22],> 70 µM (inactive)
